# Where two headings read alike, the source gives them in different places.
# Legend:
# [1] = tested on: SKBR3, AU565, RD, SKES1, A673 cells; test: Cell Titer-Glo Luminescent Cell Viability assay; conditions: read-out: IC50, cell viability; five cell lines (SKBR3, AU565, RD, SKES1, A673), after 24 hours
# [2] = biological target: T1, KLHDC2^SBD (Homo sapiens, UniProt Q9Y2U9); test: Thermal shift assay (Sypro Orange) probing stabilization of KLHDC2^SBD; type: binding; set-up: KLHDC2^SBD (15-361) and its Avi-tagged counterpart were expressed in E. coli Rosetta2 cells; 6XHis-MBP (N, cleaved yes); made in house; host or cells: E. coli Rosetta2
# T1 sequence (Q9Y2U9 15-361): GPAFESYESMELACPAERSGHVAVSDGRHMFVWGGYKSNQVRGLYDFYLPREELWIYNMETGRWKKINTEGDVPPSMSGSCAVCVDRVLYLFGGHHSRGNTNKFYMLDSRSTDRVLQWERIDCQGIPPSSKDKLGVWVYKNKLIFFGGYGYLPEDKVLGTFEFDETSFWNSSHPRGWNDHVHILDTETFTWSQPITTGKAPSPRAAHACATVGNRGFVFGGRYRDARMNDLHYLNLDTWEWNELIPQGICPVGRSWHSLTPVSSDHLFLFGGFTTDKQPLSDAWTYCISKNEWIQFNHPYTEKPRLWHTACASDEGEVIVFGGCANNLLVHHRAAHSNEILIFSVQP
# Method: In an attempt to identify non-peptide ligands that target KLHDC2’s substrate binding domain (SBD), we developed a thermal shift assay probing for stabilization of KLHDC2^SBD upon ligand addition. […] We utilized the thermal shift assay to screen ~ 9,000 molecules from a diverse collection of lead-like molecules (Figs. 1b, S1a, Supplementary Table 1).
# Experimental compounds (200 nl each) were dispensed into a 384-well PCR plate using the Labcyte ECHO 655 T. The assay solution, comprising 0.5 μM KLHDC2, 25 mM HEPES, 200 mM NaCl, and 5% Sypro Orange at pH 7.5, was added to achieve a final volume of 20 μl. Negative control wells contained only DMSO, while positive control wells contained a di-Gly substrate peptide derived from SELK. Fluorescence measurements of Sypro Orange in each sample were taken using a Quantstudio 5 or Quantstudio 6, with temperatures ranging from 23 to 75 °C at a rate of 0.05 °C/s. Data analysis involved calculating thermal stability using the Boltzmann and first derivative minima equations in Thermo Scientific Protein Thermal Shift software v1.4. The resulting data were uploaded to CDD Vault for further analysis.
# The 8892-compound lead-like one library was screened for its ability to stabilize KLHDC2 using a sypro orange-based thermal stability single-point assay.
# Supplementary Ta b l e 1. Small molecule screening data
# Category Parameter Description
# Assay Ty p e o f assay Thermal Stability Screen
# Primary measurement RFU of Sypro Orange
# Key reagents Sypro Orange
# Assay protocol Experimental compounds (200nl each) were dispensed into […]
# a 384-well PCR plate using the Labcyte ECHO 655T. The […]
# assay solution, comprising 0.5µM KLHDC2, 25mM HEPES,
# 200mM NaCl, and 5% Sypro Orange at pH 7.5, was added […]
# to achieve a final volume of 20μl. Negative control wells […]
# contained only DMSO, while positive control wells […]
# contained peptide sub2. Fluorescence measurements of
# Sypro Orange in each sample were taken using a
# Quantstudio 5 or Quantstudio 6, with temperatures ranging […]
# from 23 to 75°C at a rate of 0.05°C/second. Data analysis […]
# involved calculating thermal stability using the Boltzmann […]
# and first derivative minima equations in Thermo Scientific
# Protein Thermal Shift software v1.4. The resulting data […]
# were uploaded to CDD Vault for further analysis.
# Library Library size 10041
# Library composition The library was curated from compounds cherry picked […]
# from St. Jude’s collection, representative of 80% of the […]
# entire collection based on scaffold diversity (2D Molecular […]
# fingerprinting based clustering) and structural properties: […]
# lipophilicity (cLogP<3), size (MW 200-300 Da), and no […]
# structural alerts (PAINS).
# Source The compound collection was curated from multiple […]
# vendors and stored on-site.
# Screen Format The assay was completed in 26 384 well plates
# Concentration(s) tested Compounds were tested at 100µM, and then a 16-point […]
# serial dilution was performed on select compounds.
# Plate controls DMSO as negative control and peptide sub2 as positive […]
# Reagent/ compound dispensing system Multidrop Combi and Labcyte ECHO 655T […]
# Detection instrument and software Quant Studio 5 and Quant Studio 6 and Thermo Scientific […]
# Protein Thermal Shift software v1.4
# Correction factors No correction factors were applied.
# [3] = biological target: T1, KLHDC2^SBD; test: TR-FRET assay, competition with di-Gly degron peptide binding to KLHDC2^SBD; set-up: KLHDC2^SBD (15-361) and its Avi-tagged counterpart were expressed in E. coli Rosetta2 cells; 6XHis-MBP (N, cleaved yes); made in house; host or cells: E. coli Rosetta2
# Method: TR-FRET assays were carried out in black 384-well microtiter plates at a final volume of 20 μL per well. An assay cocktail was prepared as a mixture of 50 nM Biotin-KLHDC2 SBD, 20 nM AlexaFluor488-RIC8B peptide, 2.5 nM Tb-Streptavidin (ThermoFisher) in assay buffer (25 mM HEPES, 100 mM NaCl, 0.1% Triton X-100, 0.5 mM DTT, pH 7.5). The assay cocktail was incubated for thirty-minutes at room temperature and 20 μl distributed to assay plates. Molecules were distributed to the plates at the indicated concentration and the assay mixture was incubated for 1 h at room temperature prior to measuring the TR-FRET signal with a PHERAstar FS plate reader (BMG Labtech) equipped with modules for excitation at 337 nm and emissions at 490 and 520 nm. The integration start was set to 100 µs and the integration time to 200 µs. The number of flashes was fixed at 100. The ratio of 520/490 was used as TR-FRET signal in calculations. Assay endpoints were normalized to 100% (buffer only) and used for curve fitting in Prism.
# [4] = biological target: T1, KLHDC2^SBD; test: Surface plasmon resonance binding to KLHDC2; set-up: KLHDC2^SBD (15-361) and its Avi-tagged counterpart were expressed in E. coli Rosetta2 cells; 6XHis-MBP (N, cleaved yes); made in house; host or cells: E. coli Rosetta2
# Method: Surface plasmon resonance (SPR) was utilized to determine kinetic parameters and binding affinity of KLHDC2 substrates using a PioneerFE (Sartorius). Experiments were carried out in 20 mM Tris, 200 mM NaCl, 1 mM TCEP, 0.01% Brij35, and 1% DMSO at pH 7.4 as a running buffer with a 100 µL/min flow rate at 20 °C.
# The 10xHis-KLHDC2 was immobilized onto a Ni-NTA-coated biosensor chip (HisCap). The chip surface was conditioned using 10 mM HCl, 50 mM NaOH, and 0.1% SDS (50 µL at 100 µL/min) twice, followed by a 100 mM Tris buffer wash (100 µL at 100 µL/min). The surface was then activated using an injection of 0.5 M EDTA (125 µL at 25 µL/min) followed by an injection of 5 mM NiCl2 (125 µL at 25 µL/min). […] Channel 2 was treated identically to channel 3 except for protein loading to be used as a reference channel. […] 100% of the loop was injected with a 300 s dissociation time. All samples were run in triplicate. Data was analyzed using Qdat software and fit to a simple 1-site model.
# The SPR experiments were performed to determine the binding affinities (KD) of KLHDC2-SJ46411 and KLHDC2-SJ46418 complexes. All the experiments were performed using a Biacore 1S+ instrument. […] The running buffer consisted of 20 mM Tris pH 7.5, 200 mM NaCl, 1 mM TCEP, 0.01% Brij35, and 4% DMSO. […] In brief, before the immobilization, the sensor chip surface was conditioned by injecting a mixture of (3:1 v/v) 8 M guanidine hydrochloride and 1 M NaOH at a flow rate of 5 μL/min for 2 min for two times. Then, running buffer was injected at a 30 μl/min flow rate for 1 min 3 times. Next, the Biotin CAPture reagent was injected at a flow rate of 2 μl/min for 5 min. Then, biotinylated KLHDC2 was only injected onto the active channel (channel 2).
# Sample preparation was carried out precisely the same as SJ46411. All experiments were performed using a multi-cycle analysis method with a 30 μl/min flow rate, 120 S association, and 240 s dissociation time. All data were reference subtracted and corrected for DMSO mismatch. The sensorgrams were analyzed using Biacore insight evaluation software, and KD was determined using the 1:1 steady-state affinity fitting. Finally, all the analyzed data was replotted using GraphPad Prizm 10 software.
# [5] = inhibition of KLHDC2^SBD binding to a di-Gly degron peptide, read-out: TR-FRET IC50
Structure (SMILES),ΔTm at 50 µM ([2]; read-out: ΔTm at 50 µM) [°C],"IC50 [3, 5] [µM]",Kd ([4]; read-out: SPR Kd) [µM],further results
"Cc1sc2c(c1C)C(c1ccc(Cl)cc1)=N[C@@H](CC(=O)OC(C)(C)C)c1nnc(C)n1-2 [JQ1, reference compound]",–,–,–,IC50 [1]: ~0.3 µM
COc1ccc(-c2nc(CC(=O)NCC(=O)O)cs2)c(Cl)c1 [SJ10272],3.3 ± 0.2,30.2 ± 3.4,14.52 ± 0.01,–
O=C(O)CNC(=O)Cc1csc(-c2ccc(O)cc2Cl)n1 [SJ10280],2.5 ± 0.2,40.6 ± 7.6,25.47 ± 0.05,–
COCn1cc(-c2nc(CC(=O)NCC(=O)O)cs2)ccc1=O [SJ15396],–,–,–,ΔTm at 50 µM ([2]; 50 µM compound): 0.9 ± 0.2 °C; IC50 [3]: 55.3 ± 25.2 µM; Kd ([4]; SPR Kd): > 2000 µM
O=C(O)CNC(=O)Cc1csc(-c2cccc3ccncc23)n1 [SJ46412],–,20.3 ± 0.8,–,"Thermal shift ΔTm ([2]; KLHDC2^SBD, ligand concentration not given): 1.8 ± 0.08 °C"

# Further lines, with some results ahead:
ΔTm at 50 µM ([2]; read-out: ΔTm at 50 µM) [°C],"IC50 [3, 5] [µM]",Kd ([4]; read-out: SPR Kd) [µM],Structure (SMILES),further results
2.3 ± 0.07,46.7 ± 13.5,19 ± 0.06,O=C(O)CNC(=O)Cc1csc(-c2cccc(Cl)c2)n1 [SJ10267],–
2.8 ± 0.3,72.8 ± 8.6,26.6 ± 0.1,COCOc1ccc(-c2nc(CC(=O)NCC(=O)O)cs2)cc1F [SJ45737],–
